Legend:
human liver microsomes = format: in vitro ADME
Procedure: The oxidative metabolism was evaluated in pooled liver microsomes of rats and humans with or without 3 μM of ketoconazole (CYP3A4 inhibitor) (Yang et al., 2005, Biopharm Drug Dispos 26, 387-402). The microsomes were purchased from BD Biosciences (Woburn, Mass.). […] The incubation mixture (3 ml) was prepared in triplicate for each species in a 0.1 m potassium phosphate buffer (pH 7.4) containing 1 μM of substrate, 0.5 μM CYP enzymes, 1.8 mM glucose-6-phosphate and 0.4 units/ml glucose-6-phosphate dehydrogenase. After a 5 min preincubation at 37° C., the reaction was initiated by adding β-NADPH (0.15 mM final concentration). Aliquots of 0.25 ml were taken at 0, 15 and 30 min and placed into 3 volumes of icecold acetonitrile (containing an internal standard) to terminate the reaction. The samples were vortexed and centrifuged at 10000 RPM for 8 min to collect supernatant for sample analysis.

[1] = tested on: pseudo typed viruses that express VSV-gp instead of gp-120; format: cell-based
[2] = Pharmacokinetics of oral CG-1 with or without ritonavir
Procedure: The pharmacokinetic profile of CG-1 was studied following intravenous (IV) and per-os (PO) administration to rats. Studies were performed in conscious Wistar male rats. An indwelling cannula was implanted into the left jugular vein 24 hours before the pharmacokinetic experiment to allow full recovery of the animals from the surgical procedure. Animals (n=5) received an intravenous (IV) bolus dose of 1 mg/kg of CG-1 or 10 mg/kg by oral gavage (n=5), CG-1 was dissolved in water. […] CG-1 administration. Plasma was separated by centrifugation (4000 g, 5 min, 4° C.) and stored at −70° C. pending analysis. A non-compartmental pharmacokinetic approach was used to compare pharmacokinetic profiles obtained following different modes of administration and to calculate bioavailability values. All calculations were performed utilizing WinNonlin® 5.0.1 software (Pharsight Corporation, Mountain View, Calif., USA).
The pharmacokinetic tests were repeated as above with the addition of ritonavir to the oral administration of CG-1. The study included three groups; the first group received 10 mg/kg of CG-1 in aqueous solution, the second one received an emulsion of 10 mg/kg of CG-1 and 10 mg/kg of ritonavir and the third group received CG-1 in the same emulsion without ritonavir.

HIV-1 strand HXB2 = assay: HIV-1 infection inhibition, MAGI assay; format: cell-based; conditions: for effect on HIV-1 infection (in words): MAGI assay, cultured cells, μM range
Procedure: Hela cells were obtained from ATCC, (Manassas, Va., USA) and then grown in 75 cm2 flasks with approximately 0.5×10^6 cells/flask at 37° C. in 5% CO2 atmosphere and at a relative humidity of 95%. The culture growth medium consisted of Dulbecco's Modified Eagle Medium (DMEM) supplemented with 10% heat-inactivated fetal bovine serum (FBS), 1% nonessential amino acids. The medium was replaced every other day. Titration of HIV-1 strand HXB2 in the absence or presence of the inhibitor was carried out by the multinuclear activation of a galactosidase indicator (MAGI) assay, similarly to the procedure described by Kimpton and […] (Virol. 66, 2232, 1992). Briefly, HeLa-CD4+beta-gal cells were transferred into 96-well plates at 15×10^3 cells per well. On the following day, the cells were infected with 50 μl of serially diluted virus in the presence of […] of DEAE-dextran (Pharmacia, Sweden). Two days post-infection, cultured cells were fixed with 1% formaldehyde and 0.2% glutaraldehyde in PBS. Following intensive wash with PBS, cells were stained with a solution of 4 mM potassium ferrocyanide, 4 mM potassium ferricyanide, 2 mM MgCl2 and 0.4 mg/ml of X-Gal (Ornat, Israel). Blue cells were counted under a light microscope. According to a slightly different procedure, the assay consisted of CD4 expressing Hela P4 cells containing the β-galactosidase reporter gene placed downstream […]. the HIV-LTR promotor. These cells were seeded 24 hours prior to viral infection at a density of 5×10^5 […] in 24 well culture plates (TPP model by Beyneix). 50 μL of virus solution prepared from CEM infected cells' supernatant, were incubated for 1 hour with the assayed peptides at the required concentrations, at 4° C. 10 μg of anti CD4 monoclonal antibodies 13B8.2 or […] were used as control. After incubation the virus solution was diluted to a total volume of 1 ml and was added to the Hela P4 cells. The cells were incubated at these conditions for 3 days after which their infection rate was assayed according to the β-galactosidase activity in the cells extract. The cells were washed well, harvested and disintegrated in a buffer containing 60 mM Na2HPO4, 40 mM NaH2PO4, 10 mM KCl, 1 mM MgSO4, 50 mM β-mercaptoethanol, 2.5 mM EDTA, 0.125% NP40, 0.125% triton, 20% glycerol, 0.2 mM PMSF and 100 U/ml approtinin. The cells extract was cleaned by centrifuge at 4° C. for 15 min at 13,000 rpm. β-galactosidase activity was determined by incubation of 150 μL of total cell extract at 37° C. for 2 hours in the presence of 6 mM ONPG (O-Nitrophenyl-β-D-galactopyranoside) in a buffer containing 80 mM Na2HPO4, 1 mM β-mercaptoethanol and 10 m MMgCl2, followed by absorption measurement at 410 nm. The β-galactosidase activity was normalized according to the total protein quantity in the assay.

[3] = Permeability ex-vivo, Ussing side by side diffusion chamber; format: in vitro ADME, Wistar rats; conditions: Ussing model
[4] = Pharmacokinetic profile of CG-1 following IV and PO administration
Procedure: Rats were kept in a light-controlled room (light from 7:00 to 19:00) and were maintained on laboratory chow and water ad libitum.
The pharmacokinetic profile of CG-1 was studied following intravenous (IV) and per-os (PO) administration to rats. Studies were performed in conscious Wistar male rats. An indwelling cannula was implanted into the left jugular vein 24 hours before the pharmacokinetic experiment to allow full recovery of the animals from the surgical procedure. Animals (n=5) received an intravenous (IV) bolus dose of 1 mg/kg of CG-1 or 10 mg/kg by oral gavage (n=5), CG-1 was dissolved in water. […] Plasma was separated by centrifugation (4000 g, 5 min, 4° C.) and stored at −70° C. pending analysis. A non-compartmental pharmacokinetic approach was used to compare pharmacokinetic profiles obtained following different modes of administration and to calculate bioavailability values. All calculations were performed utilizing WinNonlin® 5.0.1 software (Pharsight Corporation, Mountain View, Calif., USA).
Non-compartmental pharmacokinetic analysis was performed using WinNonlin software, standard.

[5] = tested on: intestinal brush border enzymes; assay: Brush border membrane vesicles (BBMV) stability; format: in vitro ADME, Wistar rats; conditions: incubation in BBMVs at 37° C.
Procedure: Brush border membrane vesicles (BBMVs) were prepared from combined duodenum, jejunum, and upper ileum by a Ca^+2 precipitation method ([…]., 1997., Biochim Biophys Acta 1323, 45-56, […] et al. 2003., Biochem Biophys Res Commun 301, 8-12). The intestines of 5 male Wistar rats, 200-250 gr, were rinsed with ice cold 0.9% NaCl and freed of mucus; the mucosa was scraped off the luminal surface with glass slides and put immediately into buffer containing […] and 10 mM Tris-HCl (pH 7.5, 4° C.) and then homogenated (Polytron PT 1200, Kinematica AG, Switzerland). CaCl2 was added to a final concentration of 10 mM. The homogenate was left shaking for 30 min at 4° C. and then centrifuged at 10,000 g for 10 min. The supernatant was then centrifuged at 48,000 g for 30 min and an additional two purification steps were undertaken by suspending the pellet in 300 mM mannitol and 10 mM Hepes/Tris (pH 7.5) and centrifuging at […]. Purification of brush border membranes was assayed using the brush border membrane enzyme markers gamma-glutamyl transpeptidase (GGT), leucine amino peptidase (LAP) and alkaline phosphatase. During the course of these studies, enrichment in brush border membrane enzymes varied between 13- and 18-fold. The enzymatic reaction was performed as previously reported (Ovadia et al., 2009, Bioorg Med Chem 18, 580-589). […]

[6] = PO 10 mg/kg with RTV 10 mg/kg (emulsion)

## N=C(N)NCCCC1NC(=O)CCCCCC(=O)NC(Cc2ccccc2)CN(CC(N)=O)C1=O (centres unmarked) [CG-1]
Human liver microsomes
  oxidative metabolism in liver microsomes: partially metabolized
Human liver microsomes; human, microsomes
  microsomal stability with ketoconazole: significantly improved its stability
[1]
  infection inhibition of VSV-gp pseudo typed viruses: did not have any effect
[2]; [6]
  Oral bioavailability: 21±3%
  T1/2: 93 ± 8 min
  Tmax: 18 ± 2 min
[2]; PO 10 mg/kg, without ritonavir
  Oral bioavailability: 7.3±1.6%
  T1/2: 73 ± 6 min
  Tmax: 18 ± 1.5 min
[2]; with vs without ritonavir
  Cmax increase when ritonavir was added: 3 fold
HIV-1 strand HXB2
  effect on HIV-1 infection (in words): low μM activity
HIV-1 strand HXB2; low μM range
  inhibition of viral infection: > 80%
[3]
  permeability coefficient (Papp) ex-vivo compared with the other analogs: significantly higher than the other analogs
[3]; distal regions (ileum, colon)
  transport in the distal regions: significantly lower
[3]; jejunum
  transport in the jejunum: significantly higher
[4]; IV bolus, 1 mg/kg
  Cmax: 0.102 ± 0.019 µg/mL
  Tmax: 5 min
[4]; PO 10 mg/kg vs IV 1 mg/kg
  Oral bioavailability: ~10%
[4]; PO, 10 mg/kg oral gavage
  AUC: 21770 ± 63 ng·min/mL
  Cmax: 0.866 ± 0.076 µg/mL
  Tmax: 18 min
[4]; printed in the PO row
  CI: 0.8718 ± 0.0198 L/h/kg
  Vss: 0.6 L/kg
[5]
  stability to enzymatic degradation in BBMVs: metabolically stable and is not degraded

## N=C(N)NCCCC1NC(=O)CCCCCC(=O)NC(Cc2ccc(O)cc2)CN(CC(N)=O)C1=O (centres unmarked) [MC-1]
HIV-1 strand HXB2
  effect on HIV-1 infection (in words): did not reduce the infectivity

## N=C(N)NCCCC1CN(CC(N)=O)C(=O)C(Cc2ccccc2)NC(=O)CCCCCC(=O)N1 (centres unmarked) [SC-1]
HIV-1 strand HXB2
  effect on HIV-1 infection (in words): weak inhibitory effect
